Tested on: Jurkat cells
Assay: (r) Cell cytotoxicity assay
Assay type: cell-based, human
Details: 24 hours
Description: 1×10^5 Jurkat cells (immortalised human T lymphocytes) are added to the appropriate number of wells of a 96 well plate in 100 μL of media (RPMI supplemented with 10% foetal bovine serum). 1 μL of DMSO control (final concentration 1.0% v/v) or test compound (final concentration 20, 5 or 1 μg/mL) is added to the wells and incubated at 37° C., 5% CO2. After 24 hours, the plate is centrifuged at 1200 rpm for 3 minutes and the supernatant discarded. Cells are then resuspended in 150 μL (final concentration 7.5 μg/mL) of propidium iodide (PI) in PBS and incubated at 37° C., 5% CO2 for 15 minutes. After 15 minutes, cells are analysed by flow cytometry (BD accuri) using the FL3 window. The % viability is calculated as the % of cells that are PI negative in the test wells normalised to the DMSO control.

SMILES	% Viability at 1 μg/mL	% Viability at 5 μg/mL	% Viability at 20 μg/mL
CCC(=O)NS(=O)(=O)c1ccc(Nc2nccc(Oc3ccc(NC(=O)Nc4cc(C(C)(C)C)cc(NS(C)(=O)=O)c4OC)c4ccccc34)n2)cc1OC [17(bk), N-((4-((4-((4-(3-(5-(tert-Butyl)-2-methoxy-3-(methylsulfonamido)phenyl)ureido)-naphthalen-1-yl)oxy)pyrimidin-2-yl)amino)-2-methoxyphenyl)sulfonyl)propionamide]	93.0%	71.8%	65.6%
COc1cc(Nc2cc(Oc3ccc(NC(=O)Nc4cc(C(C)(C)C)cc(NS(C)(=O)=O)c4OC)c4ccccc34)ccn2)ccc1C(=O)NC(C)CN1CCN(C)CC1 (stereo not drawn) [17(bl), 4-((4-((4-(3-(5-(tert-Butyl)-2-methoxy-3-(methylsulfonamido)phenyl)ureido)naphthalen-1-yl)oxy)pyridin-2-yl)amino)-2-methoxy-N-(1-(4-methylpiperazin-1-yl)propan-2-yl)benzamide]	103.6%	0.2%	0.5%
COc1cc(Nc2cc(Oc3ccc(NC(=O)Nc4cc(C(C)(C)C)cc(NS(C)(=O)=O)c4OC)c4ccccc34)ccn2)ccc1C(=O)NCCOCCO [17(bm), 4-((4-((4-(3-(5-(tert-Butyl)-2-methoxy-3-(methylsulfonamido)phenyl)ureido)naphthalen-1-yl)oxy)pyridin-2-yl)amino)-N-(2-(2-hydroxyethoxy)ethyl)-2-methoxybenzamide]	103.6%	0.2%	0.5%
COc1cc(Nc2cc(Oc3ccc(NC(=O)Nc4cc(C(C)(C)C)cc(NS(C)(=O)=O)c4OC)c4ccccc34)ccn2)ccc1C(=O)NCCO [17(bn), 4-((4-((4-(3-(5-(tert-Butyl)-2-methoxy-3-(methylsulfonamido)phenyl)ureido)naphthalen-1-yl)oxy)pyridin-2-yl)amino)-N-(2-hydroxyethyl)-2-methoxybenzamide]	102.8%	65.6%	19.5%
COc1cc(Nc2cc(Oc3ccc(NC(=O)Nc4cc(NS(C)(=O)=O)cc(C(C)(C)C)c4)c4ccccc34)ccn2)ccc1C(=O)NCCN1CCN(C)CC1 [17(bo), 4-((4-((4-(3-(3-(tert-Butyl)-5-(methylsulfonamido)phenyl)ureido)naphthalen-1-yl)oxy)pyridin-2-yl)amino)-2-methoxy-N-(2-(4-methylpiperazin-1-yl)ethyl)benzamide]	98.5%	45.3%	14.0%
COc1c(NC(=O)Nc2ccc(Oc3ccnc(Nc4ccc(C(=O)NCCN5CCN(C)CC5)c(N(C)C)c4)c3)c3ccccc23)cc(C(C)(C)C)cc1NS(C)(=O)=O [17(bq), 4-((4-((4-(3-(5-(tert-Butyl)-2-methoxy-3-(methylsulfonamido)phenyl)ureido)naphthalen-1-yl)oxy)pyridin-2-yl)amino)-2-(dimethylamino)-N-(2-(4-methylpiperazin-1-yl)ethyl)benzamide]	87.2%	55.3%	2.0%
COc1cc(Nc2cc(Oc3ccc(NC(=O)Nc4cc(C(C)(C)C)cc(NS(C)(=O)=O)c4OC)c4ccccc34)ccn2)ccc1C(=O)N[C@H]1C(O)O[C@H](CO)[C@@H](O)[C@@H]1O (stereo partly drawn) [17(br), 4-((4-((4-(3-(5-(tert-Butyl)-2-methoxy-3-(methylsulfonamido)phenyl)ureido)naphthalen-1-yl)oxy)pyridin-2-yl)amino)-2-methoxy-N-((3R,4R,5S,6R)-2,4,5-trihydroxy-6-(hydroxymethyl)tetrahydro-2H-pyran-3-yl)benzamide]	91.8%	90.7%	79.2%
COc1cc(Nc2cc(Oc3ccc(NC(=O)Nc4cc(NS(C)(=O)=O)cc(C(C)(C)C)c4)c4ccccc34)ccn2)ccc1C(=O)NCCC1CCN(C)CC1 [17(bs), 4-((4-((4-(3-(3-(tert-Butyl)-5-(methylsulfonamido)phenyl)ureido)naphthalen-1-yl)oxy)pyridin-2-yl)amino)-2-methoxy-N-(2-(1-methylpiperidin-4-yl)ethyl)benzamide]	90.9%	48.7%	0.3%
COc1c(NC(=O)Nc2ccc(Oc3ccnc(Nc4ccc(C(=O)NCCOCCOCCO)c(N(C)C)c4)c3)c3ccccc23)cc(C(C)(C)C)cc1NS(C)(=O)=O [17(bt), 4-((4-((4-(3-(5-(tert-Butyl)-2-methoxy-3-(methylsulfonamido)phenyl)ureido)naphthalen-1-yl)oxy)pyridin-2-yl)amino)-2-(dimethylamino)-N-(2-(2-(2-hydroxyethoxy)ethoxy)ethyl) benzamide]	89.8%	39.9%	22.5%
COc1cc(Nc2cc(Oc3ccc(NC(=O)Nc4cc(C(C)(C)C)cc(NS(C)(=O)=O)c4OC)c4ccccc34)ccn2)ccc1C(=O)NCCCC[C@H](N)C(=O)O [17(bu), (S)-2-Amino-6-(4-((4-((4-(3-(5-(tert-butyl)-2-methoxy-3-(methylsulfonamido)phenyl)-ureido)naphthalen-1-yl)oxy)pyridin-2-yl)amino)-2-methoxybenzamido)hexanoic acid]	92.6%	92.6%	91.7%
COc1cc(Nc2cc(Oc3ccc(NC(=O)Nc4cc(C(C)(C)C)cc(NS(C)(=O)=O)c4OC)c4ccccc34)ccn2)ccc1C(=O)NC[C@H](O)[C@@H](O)[C@H](O)[C@H](O)CO [17(bw), 4-((4-((4-(3-(5-(tert-Butyl)-2-methoxy-3-(methylsulfonamido)phenyl)ureido)naphthalen-1-yl)oxy)pyridin-2-yl)amino)-2-methoxy-N-((2S,3R,4R,5R)-2,3,4,5,6-pentahydroxyhexyl) benzamide]	94.5%	96.2%	92.4%
COc1cc(Nc2nccc(Oc3ccc(NC(=O)Nc4cc(C(C)(C)C)cc(NS(C)(=O)=O)c4OC)c4ccccc34)n2)ccc1C(=O)NCCOCCOCCO [17(by), 4-((4-((4-(3-(5-(tert-Butyl)-2-methoxy-3-(methylsulfonamido)phenyl)ureido)naphthalen-1-yl)oxy)pyrimidin-2-yl)amino)-N-(2-(2-(2-hydroxyethoxy)ethoxy)ethyl)-2-methoxybenzamide]	102.4%	81.5%	1.6%
COc1cc(Nc2cc(Oc3ccc(NC(=O)Nc4cc(C(C)(C)C)cc(NS(C)(=O)=O)c4OC)c4ccccc34)ccn2)cc(OC)c1C(=O)NC1CCN(C)CC1 [17(bz), 4-((4-((4-(3-(5-(tert-Butyl)-2-methoxy-3-(methylsulfonamido)phenyl)ureido)naphthalen-1-yl)oxy)pyridin-2-yl)amino)-2,6-dimethoxy-N-(1-methylpiperidin-4-yl)benzamide]	93.6%	92.7%	64.1%
COc1cc(Nc2cc(Oc3ccc(NC(=O)Nc4cc(C(C)(C)C)cc(NS(C)(=O)=O)c4OC)c4ccccc34)ccn2)cc(OC)c1C(=O)NCC1CCN(C)CC1 [17(ca), 4-((4-((4-(3-(5-(tert-Butyl)-2-methoxy-3-(methylsulfonamido)phenyl)ureido)naphthalen-1-yl)oxy)pyridin-2-yl)amino)-2,6-dimethoxy-N-((1-methylpiperidin-4-yl)methyl)benzamide]	92.6%	94.0%	75.8%
COc1cc(Nc2cc(Oc3ccc(NC(=O)Nc4cc(C(C)(C)C)cc(NS(C)(=O)=O)c4OC)c4ccccc34)ccn2)ccc1C(=O)NCCNC(=O)CCC(=O)O [17(cd), 4-((2-(4-((4-((4-(3-(5-(tert-Butyl)-2-methoxy-3-(methylsulfonamido)phenyl)ureido)-naphthalen-1-yl)oxy)pyridin-2-yl)amino)-2-methoxybenzamido)ethyl)amino)-4-oxobutanoic acid]	96.4%	96.5%	91.4%
COc1cc(Nc2cc(Oc3ccc(NC(=O)Nc4cc(C(C)(C)C)cc(NS(C)(=O)=O)c4OC)c4ccccc34)ccn2)ccc1C(=O)NCCC(=O)N1C[C@H](O)[C@@H](O)[C@H](O)[C@H]1CO [17(cf), 4-((4-((4-(3-(5-(tert-Butyl)-2-methoxy-3-(methylsulfonamido)phenyl)ureido)naphthalen-1-yl)oxy)pyridin-2-yl)amino)-2-methoxy-N-(3-oxo-3-((2R,3R,4R,5S)-3,4,5-trihydroxy-2-(hydroxymethyl)piperidin-1-yl)propyl)benzamide]	96.7%	96.7%	96.8%
COc1cc(Nc2cc(Oc3ccc(NC(=O)Nc4cc(C(C)(C)C)cc(NS(C)(=O)=O)c4OC)c4ccccc34)ccn2)cc(OC)c1C(=O)N1CCN(CCN(C)C)CC1 [17(cg), N-(5-(tert-Butyl)-3-(3-(4-((2-((4-(4-(2-(dimethylamino)ethyl)piperazine-1-carbonyl)-3,5-dimethoxyphenyl)amino)pyridin-4-yl)oxy)naphthalen-1-yl)ureido)-2-methoxyphenyl)methane sulfonamide]	96.1%	95.3%	92.3%
